According to patent US20230062119A1, “USE OF BIOMARKERS IN IDENTIFYING PATIENTS THAT WILL BE RESPONSIVE TO TREATMENT WITH A PRMT5 INHIBITOR” (Merck Sharp & Dohme LLC, priority 2019, published 2023):
Like-named read-outs stand apart in the source and are kept apart here.

Target: T1, Full-length (FL)-PRMT5-MEP50 enzyme complex (Homo sapiens, UniProt O14744)
T1 construct: Full-length (FL)-PRMT5-MEP50 enzyme complex (recombinant proteins from baculovirus-transfected Sf21 cells: FL-PRMT5; MW=73837 kDa and FL-MEP50; MW=38614); made in house; host or cells: baculovirus-transfected Sf21 insect cells
Experiment: PRMT5-MEP50 Enzyme Methylation Assay
Type: biochemical
Settings: 1.0 nM PRMT5-MEP50, 75 nM biotinylated peptide, 15 μM SAM
Protocol: PRMT5-MEP50 biochemical assay is a direct measurement of the methylation activity of the enzyme complex on a short peptide substrate derived from the N-terminus of H4 histone. Methylation experiment is performed with recombinant PRMT5-MEP50 protein complex. The assessment of inhibitory effect of small molecules is measured by the effectiveness of the compounds to inhibit this reaction (EC50).
In this assay, the potency (EC50) of each compound was determined from a twenty-point (1:2 serial dilution; top compound concentration of 100000 nM) titration curve using the following outlined procedure. To each well of a white ProxiPlus 384 well-plate, 100 nL of compound (1% DMSO in final assay volume of 10 μL) was dispensed, followed by the addition of 8 μL of 1× assay buffer (50 mM Bicine pH 8.0, 1 mM DTT, 0.004% Tween20, 0.01% BSA) containing 1.25 nM of Full-length (FL)-PRMT5-MEP50 enzyme complex (recombinant proteins from baculovirus-transfected Sf21 cells: FL-PRMT5; MW=[…] and FL-MEP50; MW=38614) and 1 μL of 150 μM S-(5′-Adenosyl)-L-Methionine Chloride (SAM). Plates were sealed and placed in a 37° C. humidified chamber for a 60 minutes pre-incubation with compound. Subsequently, each reaction was initiated by the addition of 1 μL 1× assay buffer containing 750 nM biotinylated H4R3(Mel) peptide. The final reaction in each well of 10 μL consists of 1.0 nM PRMT5-MEP50, 75 nM biotinylated-peptide, and 15 μM SAM. Methylation reactions proceeded for 150 minutes in a sealed plate at 37° C. Reactions were immediately quenched by the addition of 1 μL of 5% formic acid. Plates were then frozen and shipped to SAMDI™ Tech Inc. to determine the percent conversion from H4R3(Mel) to H4R3(Me2). Dose-response curves were generated by plotting percent effect (% product conversion; Y-axis) vs. Log 10 compound concentrations (X-axis). EC50 values were determined by non-linear regression according to models for either sigmoidal (4 parameters) or biphasic (7 parameters) dose-response curves.

[1] = one EC50: 4 parameters single site sigmoidal model, EC50 1: first value of 7 parameters biphasic model, read-out: Enzyme Methylation Assay (EC50 or EC50 1)
[2] = second EC50 of 7 parameters biphasic model, read-out: Enzyme Methylation Assay (EC50 2)

T1 sequence (O14744 whole entry): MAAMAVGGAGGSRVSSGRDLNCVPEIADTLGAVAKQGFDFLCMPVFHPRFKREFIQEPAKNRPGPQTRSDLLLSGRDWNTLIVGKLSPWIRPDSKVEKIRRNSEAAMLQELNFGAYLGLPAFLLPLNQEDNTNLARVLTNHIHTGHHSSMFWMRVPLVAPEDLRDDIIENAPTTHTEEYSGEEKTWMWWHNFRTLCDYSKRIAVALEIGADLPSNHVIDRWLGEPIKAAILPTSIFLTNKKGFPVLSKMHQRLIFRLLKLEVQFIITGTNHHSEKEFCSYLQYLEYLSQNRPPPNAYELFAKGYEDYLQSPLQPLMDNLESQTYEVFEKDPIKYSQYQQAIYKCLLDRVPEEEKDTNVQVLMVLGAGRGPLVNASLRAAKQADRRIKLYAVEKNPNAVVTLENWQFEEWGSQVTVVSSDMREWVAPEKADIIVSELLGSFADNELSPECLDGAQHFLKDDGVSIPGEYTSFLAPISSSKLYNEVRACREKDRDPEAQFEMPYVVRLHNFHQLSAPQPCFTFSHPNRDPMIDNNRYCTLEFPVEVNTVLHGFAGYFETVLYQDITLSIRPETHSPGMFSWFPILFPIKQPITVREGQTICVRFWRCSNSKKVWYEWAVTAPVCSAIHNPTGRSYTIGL
T1 sequence (Q9BQA1 whole entry partner): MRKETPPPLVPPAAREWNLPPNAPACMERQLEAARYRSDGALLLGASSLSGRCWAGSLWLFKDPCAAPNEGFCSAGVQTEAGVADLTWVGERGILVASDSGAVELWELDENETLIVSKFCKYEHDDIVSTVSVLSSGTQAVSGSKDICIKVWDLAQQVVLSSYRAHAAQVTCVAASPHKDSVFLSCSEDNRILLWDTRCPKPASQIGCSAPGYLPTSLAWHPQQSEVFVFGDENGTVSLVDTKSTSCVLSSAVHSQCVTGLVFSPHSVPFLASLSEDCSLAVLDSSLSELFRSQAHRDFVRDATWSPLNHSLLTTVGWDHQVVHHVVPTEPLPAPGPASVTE

Compound	EC50 [1] [nM]	EC50 [2] [nM]
C#C[C@@]1(O)[C@@H](COc2ccc3cc(Br)c(N)nc3c2)O[C@@H](n2ccc3c(N)ncnc32)[C@@H]1O [Example 3, (2R,3S,4R,5R)-2-(((2-amino-3-bromoquinolin-7-yl)oxy)methyl)-5-(4-amino-7H-pyrrolo[2,3-d]pyrimidin-7-yl)-3-ethynyltetrahydrofuran-3,4-diol]	0.8	193
Cc1nc(N)nc2c1ccn2[C@@H]1O[C@@H]2[C@@H](Oc3ccc4cc(Br)c(N)nc4c3)CC[C@]2(O)[C@H]1O [Example 114, (2R,3R,3aS,6S,6aR)-6-((2-amino-3-bromoquinolin-7-yl)oxy)-2-(2-amino-4-methyl-7H-pyrrolo[2,3-d]pyrimidin-7-yl)hexahydro-3aH-cyclopenta[b]furan-3,3a-diol]	1.4	–
Nc1ncnc2c1ccn2[C@@H]1O[C@@H]2[C@@H](Oc3ccc4ccc(NCC(F)(F)F)nc4c3)CC[C@]2(O)[C@H]1O [Example 57, (2R,3R,3aS,6S,6aR)-2-(4-amino-7H-pyrrolo[2,3-d]pyrimidin-7-yl)-6-((2-((2,2,2-trifluoroethyl)amino)quinolin-7-yl)oxy)hexahydro-3aH-cyclopenta[b]furan-3,3a-diol]	0.7	143
Nc1nc2cc(C[C@@H]3CC[C@@]4(O)[C@@H]3C[C@@H](n3ccc5c(N)ncnc53)[C@@H]4O)ccc2cc1Br [Example 41, (1S,2R,3aR,4S,6aR)-4-((2-amino-3-bromoquinolin-7-yl)methyl)-2-(4-amino-7H-pyrrolo[2,3-d]pyrimidin-7-yl)hexahydropentalene-1,6a(1H)-diol 2,2,2-trifluoroacetate]	0.7	–
C[C@]1(CCc2ccc3cc(Br)c(N)nc3c2)C[C@@H](n2ccc3c(N)ncnc32)[C@H](O)[C@]1(C)O [Example 117, (1R,2S,3R,5S)-5-(2-(2-amino-3-bromoquinolin-7-yl)ethyl)-3-(4-amino-7H-pyrrolo[2,3-d]pyrimidin-7-yl)-1,5-dimethylcyclopentane-1,2-diol]	1	–
Nc1nc2cc(C[C@@H]3CC[C@@]4(O)[C@@H]3C[C@@H](n3cc(F)c5c(N)ncnc53)[C@@H]4O)cc(F)c2cc1F [Example 30, (1S,2R,3aR,4S,6aR)-4-((2-amino-3,5-difluoroquinolin-7-yl)methyl)-2-(4-amino-5-fluoro-7H-pyrrolo[2,3-d]pyrimidin-7-yl)hexahydropentalene-1,6a(1H)-diol]	0.7	–
Nc1nc2cc(O[C@H]3CC[C@@]4(O)[C@@H]3O[C@@H](n3cc(F)c5c(N)ncnc53)[C@@H]4O)ccc2cc1Br [Example 56, (2R,3R,3aS,6S,6aR)-6-((2-amino-3-bromoquinolin-7-yl)oxy)-2-(4-amino-5-fluoro-7H-pyrrolo[2,3-d]pyrimidin-7-yl)hexahydro-3aH-cyclopenta[b]furan-3,3a-diol]	0.2	–
CNc1ncnc2c1ccn2[C@@H]1O[C@@H]2[C@@H](Oc3ccc4cc(Br)c(N)nc4c3)CC[C@]2(O)[C@H]1O [Example 94, (2R,3R,3aS,6S,6aR)-6-((2-amino-3-bromoquinolin-7-yl)oxy)-2-(4-(methylamino)-7H-pyrrolo[2,3-d]pyrimidin-7-yl)hexahydro-3aH-cyclopenta[b]furan-3,3a-diol]	0.8	–
Nc1nc2cc(C[C@@H]3CC[C@@]4(O)[C@@H]3C[C@@H](n3cc(F)c5c(N)ncnc53)[C@@H]4O)ccc2cc1F [Example 33, (1S,2R,3aR,4S,6aR)-4-((2-amino-3-fluoroquinolin-7-yl)methyl)-2-(4-amino-5-fluoro-7H-pyrrolo[2,3-d]pyrimidin-7-yl)hexahydropentalene-1,6a(1H)-diol]	0.6	–

Results, then the molecule that gave them:

EC50 [1] [nM]	EC50 [2] [nM]	Compound
0.9	–	Cc1nc(C)c2ccn([C@@H]3O[C@@H]4[C@H](Cc5ccc6cc(F)c(N)nc6c5)CC[C@]4(O)[C@H]3O)c2n1 [Example 90, (2R,3R,3aS,6S,6aR)-6-((2-amino-3-fluoroquinolin-7-yl)methyl)-2-(2,4-dimethyl-7H-pyrrolo[2,3-d]pyrimidin-7-yl)hexahydro-3aH-cyclopenta[b]furan-3,3a-diol]
11	8910	Cc1ncnc2c1ccn2[C@@H]1O[C@@H]2[C@H](Cc3cnc4cc(F)c(N)nc4c3)CC[C@]2(O)[C@H]1O [Example 25, (2R,3R,3aS,6S,6aR)-6-((6-amino-7-fluoro-1,5-naphthyridin-3-yl)methyl)-2-(4-methyl-7H-pyrrolo[2,3-d]pyrimidin-7-yl)hexahydro-3aH-cyclopenta[b]furan-3,3a-diol, 3HCl]
0.4	255	Cc1ncnc2c1ccn2[C@@H]1O[C@@H]2[C@@H](Oc3ccc4cc(C(F)F)c(N)nc4c3)CC[C@]2(O)[C@H]1O [Example 115, (2R,3R,3aS,6S,6aR)-6-((2-amino-3-(difluoromethyl)quinolin-7-yl)oxy)-2-(4-methyl-7H-pyrrolo[2,3-d]pyrimidin-7-yl)hexahydro-3aH-cyclopenta[b]furan-3,3a-diol]
0.3	–	Nc1nc2cc(C[C@@H]3CC[C@@]4(O)[C@@H]3O[C@@H](n3ccc5c(N)nc(F)nc53)[C@@H]4O)ccc2cc1F [Example 45, (2R,3R,3aS,6S,6aR)-2-(4-amino-2-fluoro-7H-pyrrolo[2,3-d]pyrimidin-7-yl)-6-((2-amino-3-fluoroquinolin-7-yl)methyl)hexahydro-3aH-cyclopenta[b]furan-3,3a-diol]
0.4	–	Nc1nc2cc(C[C@@H]3CC[C@@]4(O)[C@@H]3O[C@@H](n3cc(C(F)F)c5c(N)ncnc53)[C@@H]4O)ccc2cc1Br [Example 43, (2R,3R,3aS,6S,6aR)-6-[(2-amino-3-bromoquinolin-7-yl)methyl]-2-[4-amino-5-(difluoromethyl)-7H-pyrrolo[2,3-d]pyrimidin-7-yl]hexahydro-3aH-cyclopenta[b]furan-3,3a-diol]
0.5	–	Nc1nc2c(F)c(C[C@@H]3CC[C@@]4(O)[C@@H]3O[C@@H](n3ccc5c(N)ncnc53)[C@@H]4O)ccc2cc1F [Example 20, (2R,3R,3aS,6S,6aR)-6-[(2-amino-3,8-difluoroquinolin-7-yl)methyl]-2-(4-amino-7H-pyrrolo[2,3-d]pyrimidin-7-yl)hexahydro-3aH-cyclopenta[b]furan-3,3a-diol]
0.6	–	Cc1ncnc2c1ccn2[C@@H]1O[C@@H]2[C@@H](Cc3ccc4cc(Cl)c(N)nc4c3)CC[C@]2(O)[C@H]1O [Example 131, (2R,3R,3aS,6R,6aR)-6-((2-amino-3-chloroquinolin-7-yl)methyl)-2-(4-methyl-7H-pyrrolo[2,3-d]pyrimidin-7-yl)hexahydro-3aH-cyclopenta[b]furan-3,3a-diol]
0.8	–	Nc1nc2cc(C[C@@H]3CC[C@@]4(O)[C@@H]3O[C@@H](n3ccc5c(N)ncnc53)[C@@H]4O)ccc2cc1Cl [Example 67, (2R,3R,3aS,6S,6aR)-6-((2-amino-3-chloroquinolin-7-yl)methyl)-2-(4-amino-7H-pyrrolo[2,3-d]pyrimidin-7-yl)hexahydro-3aH-cyclopenta[b]furan-3,3a-diol]
0.7	–	Cc1nc(N)nc2c1ccn2[C@@H]1O[C@@H]2[C@H](Cc3ccc4cc(Br)c(N)nc4c3)CC[C@]2(O)[C@H]1O [Example 127, (2R,3R,3aS,6S,6aR)-6-((2-amino-3-bromoquinolin-7-yl)methyl)-2-(2-amino-4-methyl-7H-pyrrolo[2,3-d]pyrimidin-7-yl)hexahydro-3aH-cyclopenta[b]furan-3,3a-diol]
